Measured values published in article PMC11031283 (ACS synthetic biology, 2024).

Target: EncM (Streptomyces maritimus, UniProt Q9KHK2)
Assay: LC-MS product formation, low activity
Type: biochemical
Settings: in vitro purified enzyme; not detected in lysate

## CCCCCc1cc(O)c(C/C=C(\C)CCC=C(C)C)c(O)c1C(=O)O [compound 3, cannabigerolic acid]
  LC-MS product formation, low activity: several other enzymes had low activity not detected in lysate assays, including EncM
